What was measured:
Format in all cases: cell-based
[1] = system: human skin cancer cell strain A431; test: MTT inhibition ratio on tumor cells A431; details: for Inhibition ratio (%): 72 h, MTT; for activity of inhibiting tumors compared with positive control: A431, summary of Table 2
Protocol: (§1) The inhibition ratio of the selected compounds on tumor cells A431 and Jurkat is measured via the MTT analytical method.
(§2) 1) Cell strains: human skin cancer cell strain A431 and human acute T cell leukemia cell Jurkat. The ells grow in an RPMI-1640 culture medium and high glucose DMEM (Gibco BRL, Rockville, Md., USA)+10% fetal calf serum (containing 2 mM L-glutamine, penicillin and streptomycin), and putting them into an incubator at 37° C. (5% CO2-95% air) for growing, carrying out digestive passage with 0.25% trypsin, and changing the solution every 1 to 2 days.
(§3) 2) The dissolution and dilution of compounds: according to the molecular weight and mass of the compounds, preparing into a 10 mM of mother solution respectively using DMSO (SIGMA), and diluting to the required concentration of 100 μM (DMSO content≤3%o) with the RPMI-1640 culture medium. Storing the diluted drugs at temperature of −20° C.
(§4) 1) Cell inoculation: Taking cells in the logarithmic phase, after digestion with pancreatin, the cells disperse into single cells, counting, adjusting cell suspension to […], inoculating in the 96-well plates with 180 μL in each well, and making the amount of the inoculated cells is 4.0×10^3 cells/well. After cell attachment, adding the fresh culture media containing compounds with different concentrations respectively, making the concentrations of the compounds reach 12.5 nM and 6.25 nM, setting 3 duplicate wells for each concentration, operating in absence of light, and adjusting the content of DMSO in each concentration to be consistent.
(§5) 2) After drug incubation for 72 h, adding 20 μL of MTT (3-[4,5-dimethylthiazol-2-yl]-2,5-diphenyltetrazolium bromide, Sigma; 5 mg/mL) into each well, incubating in a incubator for 4 h, removing supernate, adding 150 μL of DMSO into each well for dissolving, and measuring absorbancy at 570 nm using the microplate reader. According to the formula: Inhibition ratio=[(A570 control well−A570 administration well)/A570 control well]×100%, to calculate the inhibition ratio of each concentration, and the result is shown in the table 2.

[2] = system: human acute T cell leukemia cell Jurkat; test: MTT inhibition ratio on tumor cells Jurkat; details: for Inhibition ratio (%): 72 h, MTT; for activity of inhibiting tumors compared with positive control: summary of Table 2
Protocol: as §1, §2, §3, §4, §5

[3] = system: intracellular microtubulin of human epidermal carcinoma A431; test: High content imaging analysis of microtubulin (immunofluorescent staining, Alexa 488); details: 12.5 nM, 24 h; for Alexa488 stained fluorescence intensity of microtubulin in the cells: versus blank and DMSO control, FIG. 3/4; for microtubulin distribution and cellular morphology / Alexa488 fluorescence intensity compared with the positive control Plinabulin: A431 cells; for microtubulin distribution and cellular morphology: FIG. 3; for Alexa488 fluorescence intensity compared with the positive control Plinabulin: FIG. 4
Protocol: Plinabulin (dehydro-phenylahistin) is used as positive control, and concentration is set as 12.5 nM. According to the data in earlier-stage, 3 kinds of samples are selected, i.e., compounds 1, 2 and 3. The concentrations of all samples are set as 12.5 nM. According to the experiment method for specific immunofluorescent staining (Alexa 488), the effect of the compounds 1, 2 and 3 on the expression of intracellular microtubulin of human epidermal carcinoma A431 is detected via the high content imaging analysis system. 1) Taking cells in the logarithmic phase, after digestion with pancreatin, the cells disperse into single cells counting, inoculating in the 96-well plates at 1.2×10^4 cells/well, putting at temperature of 37° C., culturing in a 5% CO2 incubator for 24 h until cell attachment. 2) After cell attachment, for experiment group, adding the fresh culture medium containing compounds with different concentrations respectively into each well, making the concentrations of the compounds reach 12.5 nM, and setting 3 duplicate wells for each concentration. In the control group, adding a solvent DMSO with equimultiple diluting, selecting Plinabulin (dehydro-phenylahistin) as a positive drug, setting 3 duplicate wells in each group, and culturing in an incubator at temperature of 37° C. under 5% CO2 saturated humidity for 24 h. 3) Absorbing the culture medium after 24 h, and washing with PBS for 3 times; fixing with 4% paraformaldehyde for 30 min, absorbing paraformaldehyde, and washing with PBS for 3 times; sealing with 0.3% Triton X-100 and 5% BSA for 30 min, absorbing, and washing with PBS for 3 times; adding Tubulin antibody (mouse antibody, diluting in a ratio of 1:200), and staying overnight at temperature of 4° C.; absorbing, and washing with PBS for 3 times; adding DyLight 488-goat anti mouse IgG (diluting in a ratio of 1:1000), and placing at room temperature for 90 min 4) Photographing analysis of high content imaging analysis system

Row | Structure (SMILES) | Inhibition ratio (%) ([1]; A431, concentration 12.5 nM) | activity of inhibiting tumors compared with positive control [1] | Inhibition ratio (%) ([2]; concentration 12.5 nM) | activity of inhibiting tumors compared with positive control [2] | Alexa488 stained fluorescence intensity of microtubulin in the cells [3] | microtubulin distribution and cellular morphology [3] | Alexa488 fluorescence intensity compared with the positive control Plinabulin [3] | Inhibition ratio (%) ([1]; A431, concentration 6.25 nM) | Inhibition ratio (%) ([2]; concentration 6.25 nM)
1 | [2H]/C(c1nc[nH]c1C(C)(C)C)=c1/[nH]c(=O)/c(=C(\[2H])c2c([2H])c([2H])c([2H])c([2H])c2[2H])[nH]c1=O [Compound 7, (3Z,6Z)-3-(phenyl-2,3,4,5,6-d5)-methylene-d-6-((5-(tert-butyl)-1H-imidazol-4-yl)methylene-d)piperazine-2,5-dione] | 87.73 | close to that of the positive control Plinabulin | 64.49 | close to that of the positive control Plinabulin |  |  |  |  | 
2 | [2H]/C(c1nc[nH]c1C(C)(C)C)=c1/[nH]c(=O)/c(=C/c2c([2H])c([2H])c([2H])c([2H])c2[2H])[nH]c1=O [Compound 1, (3Z,6Z)-3-(phenyl-2,3,4,5,6-d5)-methylene-6-((5-(tert-butyl)-1H-imidazol-4-yl)methylene-d)piperazine-2,5-dione] | 95.04 | close to that of the positive control Plinabulin | 86.46 | close to that of the positive control Plinabulin | obviously enhanced | aggregation in microtubulin and a significant change in cellular morphology | higher than the positive control in the effect |  | 
3 | [2H]/C(c1c([2H])c([2H])c([2H])c([2H])c1[2H])=c1/[nH]c(=O)/c(=C/c2nc[nH]c2C(C)(C)C)[nH]c1=O [Compound 6, (3Z,6Z)-3-(phenyl-2,3,4,5,6-d5)-methylene-d-6-((5-(tert-butyl)-1H-imidazol-4-yl)methylene)piperazine-2,5-dione] | 79.28 | close to that of the positive control Plinabulin | 73.40 | close to that of the positive control Plinabulin |  |  |  | 16.17 | 7.70
4 | [2H]/C(c1ccccc1)=c1/[nH]c(=O)/c(=C(\[2H])c2nc[nH]c2C(C)(C)C)[nH]c1=O [Compound 2, (3Z,6Z)-3-(phenylmethylene-d)-6-((5-(tert-butyl)-1H-imidazol-4-yl)methylene-d)piperazine-2,5-dione] | 94.11 | close to that of the positive control Plinabulin | 79.65 | close to that of the positive control Plinabulin | obviously enhanced | aggregation in microtubulin and a significant change in cellular morphology | higher than the positive control in the effect |  | 
5 | [2H]/C(c1ccccc1)=c1/[nH]c(=O)/c(=C/c2nc[nH]c2C(C)(C)C)[nH]c1=O [Compound 4, (3Z,6Z)-3-(phenylmethylene-d)-6-((5-(tert-butyl)-1H-imidazol-4-yl)methylene)piperazine-2,5-dione] | 91.85 | close to that of the positive control Plinabulin | 82.33 | close to that of the positive control Plinabulin |  |  |  | 53.90 | 16.04
6 | [2H]c1c([2H])c([2H])c(/C=c2\[nH]c(=O)/c(=C/c3nc[nH]c3C(C)(C)C)[nH]c2=O)c([2H])c1[2H] [Compound 5, (3Z,6Z)-3-(phenyl-2,3,4,5,6-d5)-methylene-6-((5-(tert-butyl)-1H-imidazol-4-yl)methylene)piperazine-2,5-dione] | 66.00 | close to that of the positive control Plinabulin | 16.86 | close to that of the positive control Plinabulin |  |  |  |  | 
7 | CC(C)(C)c1[nH]cnc1/C=c1\[nH]c(=O)/c(=C/c2ccccc2)[nH]c1=O [Plinabulin, reference compound] | 91.81 |  | 79.69 |  | obviously enhanced | aggregation in microtubulin and a significant change in cellular morphology |  | 63.25 | 13.75
8 | [2H]/C(c1nc[nH]c1C(C)(C)C)=c1/[nH]c(=O)/c(=C/c2ccccc2)[nH]c1=O [Compound 3, (3Z,6Z)-3-(phenylmethylene)-6-((5-(tert-butyl)-1H-imidazol-4-yl)methylene-d)piperazine-2,5-dione] | 93.79 | close to that of the positive control Plinabulin | 86.09 | close to that of the positive control Plinabulin | obviously enhanced | aggregation in microtubulin and a significant change in cellular morphology | higher than the positive control in the effect |  | 

— patent US10434098B2, “Deuterated dehydrophenylahistin compounds and preparation method thereof and use thereof in preparation of anti-tumor drugs” (MARINE BIOMEDICAL RESEARCH INSTITUTE OF QINGDAO CO., LTD., priority 2015, dated 2019)
